These results are taken from US10031125B2, “Diagnosis and treatment of invasive aspergillosis” (THE BRIGHAM AND WOMEN'S HOSPITAL, INC., priority 2012, dated 2018).

Molecules are shown by their SMILES. Starred links: 1 amine or outer side, 2 acyl side, 3 side chain; linkers in the order of their positions; H or OH if unused. Positions of bridges follow the written chain, without caps; N, C: chain ends. Non-standard residues stand in square brackets, D forms with d. Residues, ends and D or L forms follow the SMILES beside them. *: point of attachment. hTyr(3S-OH,4S-OH,3'-OSO3H) = N[C@H](C(=O)O)[C@H](O)[C@@H](O)c1ccc(O)c(OS(=O)(=O)O)c1; Orn(4R-OH,5R-OH) = O=C([C@H](C[C@@H](O)[C@@H](O)N[*:3])N[*:1])[*:2]; Pro(3S-OH,4S-Me) = C[C@H]1CN[C@H](C(=O)O)[C@H]1O; X1 = CCCCCOc1ccc(-c2cc(-c3ccc(C(=O)*)cc3)no2)cc1; Gln(3R-OH) = NC(=O)C[C@@H](O)[C@H](N)C(=O)O; Hyp = O=C(O)[C@@H]1C[C@@H](O)CN1

One assay has as its system A. terreus. The conditions noted are these: some isolates; Baddley et al., J. Clin. Microbiol. 2009; cited from earlier work.
Another assay concerns Aspergillus fumigatus. In words: Antifungal exposure modulates the release of VOCs in A. fumigatus in vitro (headspace GC-MS). The conditions noted are these: for change in key A. fumigatus VOC features at 24 hours: compared to matched control samples. In kind it is cell-based. Here is the method:
For each experiment, 10^4 conidia were inoculated into 5 mL of microbial media (either nutrient Yeast Extract Peptone Dextrose (YPD) broth, nutrient poor Aspergillus minimal media (Pontecorvo et al., Advan Genet 1953; 5:141-238), or under iron-starved, alkaline stress, or nitrogen-depleted conditions (McDonagh et al., PLoS Pathog 2008; 4:e1000154)) in 20 mL glass vials with an airtight crimp top incorporating a rubber septum. Cultures were incubated for 24-144 hours at 200 rpm and 37° C. and headspace gas was dynamically adsorbed, using argon carrier gas and an air sampling pump calibrated to 20 mL/minute, onto Markes thermal desorption traps containing tandem beds of Tenax TA (200 mg), Carbograph 1 TD (100 mg), and Carboxen 1003 (100 mg), optimized to retain VOCs of diverse size and polarity.
Headspace VOCs were also collected after exposure of a subset of fungal isolates to the antifungal drugs voriconazole, liposomal amphotericin B, and micafungin, each at a concentration of […].
VOCs were desorbed onto a dual GC-MS/DMS system (FIG. 1)—the eluent from the gas chromatograph was split between the MS, to allow identification of each compound, and the DMS, an extremely sensitive and selective gas detector that can be easily used as a point-of-care gas detection device, to determine the mobility pattern for each compound. The NIST MS Search 2.0 Library was used to identify VOCs in the total ion chromatogram (TIC) of the GC-MS data. Differences in spectral features of DMS output were visually distinguished between the positive ion spectra of A. fumigatus and A. terreus and principal component analysis (PCA) was used to evaluate the degree of class discrimination between these fungal species using algorithms in MATLAB (Version R2012a).
Whether exposure to antifungal drugs might modulate VOC release in Aspergillus fumigatus was assessed in vitro.

Where [1] appears, read: added to 48-hour hyphal cultures, after 24 hours, 1.0 mg/mL.

On to `C[C@@H]1[C@H](O)[C@@H](C)/C=C/C=C/C=C/C=C/C=C/C=C/C=C/[C@H](O[C@@H]2O[C@H](C)[C@@H](O)[C@H](N)[C@@H]2O)C[C@@H]2O[C@](O)(C[C@@H](O)C[C@@H](O)[C@H](O)CC[C@@H](O)C[C@@H](O)CC(=O)O[C@H]1C)C[C@H](O)[C@H]2C(=O)O` [AMB, amphotericin B], for which, in the assay on A. terreus, the “susceptibility of A. terreus isolates” value was “resistant”.

Consider `CCCCCOc1ccc(-c2cc(-c3ccc(C(=O)N[C@H]4C[C@@H](O)[C@@H](O)NC(=O)[C@@H]5[C@@H](O)[C@@H](C)CN5C(=O)[C@H]([C@H](O)CC(N)=O)NC(=O)[C@H]([C@H](O)[C@@H](O)c5ccc(O)c(OS(=O)(=O)O)c5)NC(=O)[C@@H]5C[C@@H](O)CN5C(=O)[C@H]([C@@H](C)O)NC4=O)cc3)no2)cc1` [micafungin] (X1-[Orn(4R-OH,5R-OH)]T[Hyp][hTyr(3S-OH,4S-OH,3'-OSO3H)][Gln(3R-OH)][Pro(3S-OH,4S-Me)]; lactam 1-C), for which the “increase in some of the key A. fumigatus VOC features” value with Aspergillus fumigatus (added to 48-hour hyphal cultures, after 24 hours, compared to matched control samples without drug, 1.0 mg/mL) is not above 17 fold. For the same compound, the “change in key A. fumigatus VOC features at 24 hours” value in the assay with Aspergillus fumigatus (setting [1]) was “initial increase”. The “key A. fumigatus VOC features with longer incubation” value in the assay on Aspergillus fumigatus (longer duration of incubation and hyphal death) is “attenuation”.

`C[C@@H](c1ncncc1F)[C@](O)(Cn1cncn1)c1ccc(F)cc1F` [voriconazole]: the “change in key A. fumigatus VOC features at 24 hours” value in the assay on Aspergillus fumigatus (setting [1]) is on record as “near-complete attenuation”.
